Measurements: US10272182B2, “Copolymer membrane for high-dose chemotherapy delivery during transarterial chemoembolization” (THE REGENTS OF THE UNIVERSITY OF CALIFORNIA, priority 2014, dated 2019)

Assay: Hepatic artery IAC infusion of dox in swine without CF device
Assay type: in vivo
Conditions: 50 mg dox (2 mg/mL) into the liver via hepatic artery over 10 minutes
Experimental: In vivo pilot experiments on swine were performed to establish an animal model and proof-of-concept for toxicity reduction. Farm swine (n=3, 30 kg) received humane care in compliance with the UCSF IACUC. Interventional procedures included anesthesia (Isoflurane), X-ray fluoroscopy, percutaneous transarterial catheterization of the hepatic artery, and percutaneous transveous catheterization of the vena cava. Heparin was […] in order to prevent thrombus formation. Heart rate, electrocardiogram, and O2-saturation were continuously monitored during the interventions. Animals were euthanized immediately after the procedures.
In the second animal, a CF device was not deployed, but rather a hepatic artery IAC infusion of dox was performed with subsequent sampling of blood at various times and positions throughout the venous system. This was performed in order to validate a hepatic dox IAC pharmacokinetic experimental model, measuring venous dox concentrations over time via a developed liquid chromatography-mass spectroscopy assay (Pacific Biolabs, Hercules, Calif.). In this animal, a microcatheter was advanced into the hepatic artery via standard access from a right femoral artery approach using fluoroscopy and contrast as needed. Via percutaneous UV access, central catheters were positioned with tips in the suprahepatic IVC and right hepatic vein. […]

hemodynamic changes during the procedure: no hemodynamic changes
Structure (SMILES): COc1cccc2c1C(=O)c1c(O)c3c(c(O)c1C2=O)C[C@@](O)(C(=O)CO)C[C@@H]3O[C@H]1C[C@H](N)[C@H](O)[C@H](C)O1 [dox, doxorubicin]
